# Data: patent EP1030659B1 (Warner-Lambert Company LLC, priority 1997, dated 1999)
# pIC50, pKd, pKi: −log10 of the molar value. Read-outs that look alike come from different tables or passages of the source.
# Legend:
# α1-receptors = assay: Alpha-1 binding, 3H-prazocin, canine lung membranes; parameters: species or system mongrel dogs; conditions: for pKi: Ki = IC50 / 1 + I/Kd, Kd from saturation analysis, unit inferred
# α2-receptors = assay: Alpha-2 binding, p-125iodoclonidine, canine brain (frontal cortex) membranes; parameters: species or system mongrel dogs; conditions: for pKi: Ki = IC50 / 1 + I/Kd, Kd from saturation analysis, unit inferred; for pIC50: inhibition of 50% of specific p-iodoclonidine binding, mean of several test samples; for pKd: canine cerebral cortex membranes
# Method: • PULMONARY ALPHA-1 AND BETA-2 RECEPTORS. The lungs of mongrel dogs were separated from cartilaginous airways and major blood vessels, weighed, chopped and placed into 10 volumes of ice-cold buffered sucrose (50 mM Tris-HCl, pH 7.4, 1 mM EGTA, 0.32 M sucrose). The tissue was then homogenized in a type PT10/35, size 89/PTA 20S, Polytron tissue homogenizer (Kinematica, Westbury, NY). The homogenate was filtered through two layers of cheesecloth, and the filtrate was dounced three times using a 55 ml Con-Torque Potter homogenizer (Eberbach Corporation, Ann Arbor, Ml). […] The supematant was re-centrifuged at 30,000 x g for 30 minutes at 4°C and the resulting pellet was washed and resuspended in 10 volumes of Tris buffer (50 mM Tris HCL, pH 7.4, 1 mM EGTA) and incubated at 37°C for 30 minutes in a shaking water bath. The suspension was centrifuged at 4°C at 30,000 x g for 30 minutes and the resulting pellet washed in 10 volumes of Tris buffer for a total of three additional centrifugations and washes. […] Protein concentration was determined by the Lowry method and the final suspension was adjusted to 10 mg of protein/ml, aliquoted and stored at -90°C. Particulates were also prepared for β2 receptors using the identical procedure except the final protein concentration was adjusted to 0.1 mg/ml. • BRAIN ALPHA-2 RECEPTORS: Membranes of mongrel dogs were harvested from the canine frontal cortex and prepared as described above with respect to the lungs, except that the final membrane protein concentration was adjusted to 0.5 mg/ml.
# Nonspecific binding was determined for each concentration point in separate incubations using 10 µM phentolamine. Each experimental point was determined in triplicate. […] All binding assay incubations were terminated by rapid dilution with 2 ml of ice-cold wash buffer (50 mM Tris-HCl, pH 7.4) and filtration through FP-100 Whatman GF/B fired filters (Biomedical Research & Development Lab, Gaithersburg, MD) using a Brandel receptor-binding harvester. The filters were washed twice more with 4 ml of wash buffer and then added to 6 ml Cytoscint (ICN, Costa Mesa CA) for liquid scintillation counting (Barnes et al., 23 MOL. PHARMACOL. 570-75 (1983)). […] Nonspecific binding was determined in separate incubations in the presence of 10 µM phentolamine. The final concentration of p-iodoclonidine was 44-45 pM in competition studies and between 50 pM and 10 nM in saturation experiments. Bound and free p-^125 iodoclonidine were separated and the bound quantitated as described below for the ICYP assays. […] Nonspecific binding was determined in separate incubations in the presence of 2 µM d,I-propranolol. Each experimental point was determined in triplicate. […] Incubations were terminated as described above for the α1 assays. Filters were placed into polyethylene tubes and the bound ligand was determined by gamma spectrometry(Sano et al., 52 LIFE SCIENCES 1063-70 (1993)).
# All data were analyzed with the aid of microcomputer nonlinear curve fitting programs (PRISM 2.0, Graphpad Software, San Diego CA).
# The receptors resident in each of the three membrane preparations were evaluated by standard saturation analysis following the addition of increasing concentrations of the appropriate radioligand.
# The radioligand added for subsequent α2-displacement assays was adjusted to evaluate only the high affinity receptor. Contributions from p-iodoclonidine binding to imidazoline receptors in the α2- displacement assay was evaluated with epinephrine.
# Male Swiss-Webster mice [1] = assay: Locomotor stimulant effects (horizontal locomotor activity); assay type: in vivo; conditions: i.p.; for ED50: Mus musculus, ip, dose resulting in ½ the maximal stimulant effect, read-out: Stimulation Potency (ED50); for locomotor stimulant effects, time course (in words): 2-hour session; for Stimulation Efficacy: ratio of the maximal stimulant effect of the test compound to the maximal effect of (+)-amphetamine
# [2] = Dosage required to raise mean arterial pressure (MAP) by 10% in dogs; assay type: in vivo; conditions: experimentally determined
# Method: (§1) Nasal airway pressure was measured using a Validyne pressure transducer (Validyne Engineering, Northridge, CA) with a 2.25 cm H2O range membrane connected to a multipen recorder (Grass Instruments, Quincy, MA). Air was passed through an in-line direct measure flow meter (Gilmont Instruments, Barrington, IL) connected to the nasal opening cannula. Pressure was measured in the line with a constant flow rate (150 ml/min) of air. Drugs were directly injected into the jugular vein using a 30 gauge needle. All injections were of a constant 0.1 ml volume. In the congestion challenged groups congestion was achieved by an intranasal administration of histamine (50 mM, 0.02 ml/nostril). The histamine was expelled after 2 minutes with a short nasal cannula airflow and subsequent enantiomeric drug doses were directly injected into the jugular vein. The dosage chosen for each drug was the amount needed to increase the mean arterial pressure (MAP) of the animal by 10%; this dosage served as the "100%" dose for the initial nasal airway studies. […] The dosage required for rats was calculated by proportionately adjusting the experimentally determined dog dosage to account for the lesser weight of the rats.
# [3] = Rat dosage calculated from the dog dosage that raises MAP by 10%; assay type: in vivo; conditions: calculated from the dog dosage by proportionately decreasing for the lesser weight of the rat; absolute dosage
# Method: as §1
# [4] = Nasal airway pressure (decongestant activity) in normal and histamine-challenged rats; assay type: in vivo, Sprague Dawley rats; conditions: for Mean Decrease in Nasal Airway Pressure / effect on normal airway decongestion (in words): rats; for Mean Decrease in Nasal Airway Pressure: mean ± standard error; for effect on normal airway decongestion (in words): 75% dose; for Post Drug nasal airway pressure: 100% dose into the jugular vein; for %Change in nasal airway pressure: 100% dose
# [5] = Mean arterial blood pressure after the 75% dose in rats
# Male Swiss-Webster mice [6] = assay: H1 antihistamine (triprolidine) interaction studies, locomotor activity; conditions: for interaction with triprolidine pretreatment (central nervous system stimulation, horizontal movement): pretreatment with 0.01, 0.1, or 1.0 mg/kg triprolidine 20 minutes before the sympathomimetic
# β2-receptors = biological target: T1, β2-receptors (Canis lupus familiaris, UniProt P54833); assay: Beta-2 binding, 125iodocyanopindolol (ICYP), canine lung membranes; parameters: species or system mongrel dogs
# T1 construct: The lungs of mongrel dogs were separated from cartilaginous airways and major blood vessels; from tissue; host or cells: mongrel dog lung membranes
# T1 sequence (P54833 whole entry): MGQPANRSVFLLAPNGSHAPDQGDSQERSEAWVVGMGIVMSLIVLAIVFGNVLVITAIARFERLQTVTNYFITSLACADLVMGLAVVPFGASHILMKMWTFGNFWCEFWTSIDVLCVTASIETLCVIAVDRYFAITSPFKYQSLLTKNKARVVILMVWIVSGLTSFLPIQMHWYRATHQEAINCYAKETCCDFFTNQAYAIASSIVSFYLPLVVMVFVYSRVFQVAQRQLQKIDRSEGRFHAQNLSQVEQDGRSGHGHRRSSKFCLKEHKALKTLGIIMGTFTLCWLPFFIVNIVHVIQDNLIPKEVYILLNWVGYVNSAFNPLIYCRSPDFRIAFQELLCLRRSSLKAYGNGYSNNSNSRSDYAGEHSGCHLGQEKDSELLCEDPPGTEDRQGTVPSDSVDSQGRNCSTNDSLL
# [7] = 5% of the dose that increased canine resting mean arterial pressure 10%
# [8] = 10% of the dose that increased canine resting mean arterial pressure 10%
# [9] = 25% of the dose that increased canine resting mean arterial pressure 10%
# [10] = 50% of the dose that increased canine resting mean arterial pressure 10%
# [11] = histamine-challenged rats (50 mM, 0.02 ml/nostril)
# [12] = histamine-challenged rats, relative to post-histamine level
# [13] = non-histamine-challenged rats, relative to control
SMILES,pKi (α1-receptors),pKi (α2-receptors),pIC50 (α2-receptors),ED50 (Male Swiss-Webster mice [1]) [mg/kg],"locomotor stimulant effects, time course (in words) (Male Swiss-Webster mice [1])",Stimulation Efficacy (Male Swiss-Webster mice [1]),"Dosage of Enantiomer, Dog: dosage required to raise MAP by 10% [2] [µg/kg]","Dosage of Enantiomer, Rat [3] [µg]","Mean Decrease in Nasal Airway Pressure [4, 7]","Mean Decrease in Nasal Airway Pressure [4, 8]","Mean Decrease in Nasal Airway Pressure [4, 9]","Mean Decrease in Nasal Airway Pressure [4, 10]","Post Drug nasal airway pressure [4, 11] [mm water]","%Change in nasal airway pressure [4, 12] [%]",Post Drug nasal airway pressure ([4]; non-histamine-challenged rats) [mm H2O],"%Change in nasal airway pressure [4, 13] [%]","interaction with triprolidine pretreatment (central nervous system stimulation, horizontal movement) (Male Swiss-Webster mice [6])",further results
CN[C@@H](C)[C@H](O)c1ccccc1 [(-)-ephedrine],[…],[…],[…],[…],Dose dependent increases in locomotor activity of slower onset and longer duration,[…],[…],[…],[…],[…],[…],[…],6.4 ±0.6,[…],6 ± 0.5,[…],increased horizontal movement,effect on normal airway decongestion (in words) [4]: approximately the same efficacious effect on normal airway decongestion; increase in blood pressure (in words) [5]: slightly greater (though significant) increase in blood pressure than (+)-ephedrine
Cc1ccc(/C(=C\CN2CCCC2)c2ccccn2)cc1 [triprolidine],,,,,,,,,,,,,,,,,,"effect on horizontal distance, triprolidine alone (Male Swiss-Webster mice [6]; 0.25 to 25 mg/kg, injected immediately prior to testing, 2-hour test period): failed to affect horizontal distance; effect on locomotion, triprolidine alone (Male Swiss-Webster mice [6]; 50 and 100 mg/kg, beginning within 10 minutes, lasting 30 to 40 minutes): Dose-dependent depression of locomotion"
"CNC[C@H](O)c1ccc(O)c(O)c1 [Epinephrine, epinephrine]",,,,,,,,,,,,,,,,,,displacement of bound p-iodoclonidine (α2-receptors; check for binding to imidazoline receptors in the α2-displacement assay): easily displaced all bound p-iodoclonidine
"CC(C)(C)NCC(O)COc1cccc2[nH]c(C#N)c([125I])c12 (stereo not shown) [ICYP, iodocyanopindolol]",,,,,,,,,,,,,,,,,,"Bmax (β2-receptors; Saturation Analysis, Run 1): 149 femtomoles per mg protein; Bmax (β2-receptors; Saturation Analysis, Run 2): 142 femtomoles per mg protein; Bmax (β2-receptors; Saturation Analysis, Summary): 146 femtomoles per mg protein; Bmax (β2-receptors; Scatchard Analysis, Run 1): 150 femtomoles per mg protein; Bmax (β2-receptors; Scatchard Analysis, Run 2): 139 femtomoles per mg protein; Bmax (β2-receptors; Scatchard Analysis, Summary): 145 femtomoles per mg protein"
CN[C@H](C)[C@@H](O)c1ccccc1 [(+)-ephedrine],4.40,[…],[…],84.9,small increase in locomotor activity,[…],[…],60,[…],[…],[…],[…],[…],[…],7 ± 0.9,[…],No such central nervous system stimulation,effect on normal airway decongestion (in words) [4]: approximately the same efficacious effect on normal airway decongestion
"CC(N)Cc1ccccc1 (single isomer, unassigned; (+)) [(+)-amphetamine]",,,,1.3,dose- and time-dependent increase in the distance traversed,,,,,,,,,,,,,
CN[C@@H](C)[C@@H](O)c1ccccc1 [(+)-pseudoephedrine],[…],[…],[…],12.6,Little or no stimulant effects,[…],[…],60,[…],[…],[…],[…],[…],-36.7 ±2.7,7 ± 0.9,[…],increased horizontal movement,
CNC[C@H](O)c1cccc(O)c1 [(-)-phenylephrine],5.52,,,,,0,10,3 to 5,-1.6 ± 0.9,-4.8 ± 0.8,-12.1 ± 2.3,-5.2 ± 1.6,10.5 ±2.1,-22.3 ±8.5,4 ± 0.2,-20.3 ± 4.3,,pIC50 (α1-receptors): 5.15
"CC(C)(C)NCC(O)COc1cccc2[nH]c(C#N)c(I)c12 (stereo not shown) [ICYP, iodocyanopindolol]",,,,,,,,,,,,,,,,,,"pKd (β2-receptors; Saturation Analysis, Run 1): 11.02; pKd (β2-receptors; Saturation Analysis, Run 2): 11.03; pKd (β2-receptors; Saturation Analysis, Summary): 11.02; pKd (β2-receptors; Scatchard Analysis, Run 1): 11.00; pKd (β2-receptors; Scatchard Analysis, Run 2): 11.11; pKd (β2-receptors; Scatchard Analysis, Summary): 11.05"
Clc1cc(I)cc(Cl)c1NC1=NCCN1 [p-iodoclonidine],,,,,,,,,,,,,,,,,,"pKd (α2-receptors; Saturation Analysis, read-out: Kd 1 (high affinity)): 9.82; pKd (α2-receptors; Saturation Analysis, read-out: Kd 2 (high affinity)): 8.52; pKd (α2-receptors; Scatchard Analysis, read-out: Kd 1 (high affinity)): 9.82; pKd (α2-receptors; Scatchard Analysis, read-out: Kd 2 (low affinity)): 9.06"
